Assay [1] addresses T1, Bcl-xL-Beclin 1 20-mer complex (Homo sapiens, UniProt Q07817).
T1 construct: made in house
Nature of the assay: FP competitive binding assay (disruption of Bcl-xL-20-mer complex). As to conditions: 50 nM 20-mer, 2 μM Bcl-xL. The protocol:
Figure 1 FP-based HTS for Beclin 1 mimetics (A) Schematic presentation of the Beclin 1 protein and sequences of five synthetic peptides modified from Beclin 1 BH3 peptide. Diagram of human Beclin 1 protein with different domains is shown in the bottom. BH3 domain is necessary and sufficient for interaction with Bcl-2/Bcl-xL. Amino acids in red are the critical residues for the binding. (B) Five fluorescein-labeled Beclin 1 BH3 peptides were tested for their binding ability to Bcl-xL protein in FP assay. Fluorescein-labeled Bak BH3 peptide was used as a positive control. Bcl-xL protein was titrated to a solution of 50 nM peptides. (C) Competitive binding assay with positive controls, ABT-263 and (–)-gossypol ((–)G). […] (D–E) HTS was performed with ~50000 compounds from Prestwick, Microsource, CMLD and Chembridge libraries. The four libraries were divided into two groups and screened separately. Compounds activity (percent of inhibition) of first screen (D) and second screen (E) were shown with Z′ value indicated on top. Plate median + 3SD was used as a threshold to determine the initial hits.
Bcl-xL protein was immobilized on the sensor chip with 10000 RU.
All N′-fluorescein-labeled peptides were purchased from Kansas State University (Manhattan, KS). […] 16mer Bak ([…]) sequence was from published literature. Bcl-xL protein (25 kDa, > 90% pure based on SDS–PAGE) was expressed and purified in Protein Product Group, University of Kansas. FP assays were carried out as described in our previous publication with some modified. […] Then, fluorescein-labeled peptide was added to each well with a final concentration of 50 nM and incubated at room temperature for 30 min. Anisotropy measurements were taken at room temperature using a BioTek Synergy H4 plate reader (Biotek, Winooski, VT) following the protocol recommended by the manufacture. The Kd was estimated by nonlinear regression to a one-site binding model using GraphPad Prism 5.0 (GraphPad, San Diego, CA). […] Compound solvent DMSO only was used as a negative control in the competition assay. After 2 h incubation, the plate was read and polarization was calculated.

In a further assay the test system is DU145. Nature of the assay: MTT-based cytotoxicity assay, DU145. As to conditions: Homo sapiens, DU-145, averages of at least two independent experiments, read-out: Cytotoxicity in different cell lines (IC50, μM) DU145. An excerpt:
(§1) Human prostate cancer cell lines PC-3 and DU145, were purchased from American Type Culture Collection (ATCC) and used within 50 passages. PC-3a is a derivative of PC-3 that is resistant to chemo/radiotherapy, established in our lab and confirmed by genotyping. All cells were maintained in DMEM (Mediatech, Manassas, VA) supplemented with 10% fetal bovine serum (FBS) (Sigma-Aldrich, St. Louis, MO), 1% Glutamine (Mediatech, Manassas, VA), 1% antibiotics (Mediatech, Manassas, VA). Compounds for primary FP-based HTS screening were from Prestwick, Microsource, University of Kansas Center of Excellence in Chemical Methodologies & Library Development (KU CMLD, Lawrence, KS), and Chembridge libraries. Compounds for MTT and SPR validation experiment were purchased from Microsource (Gaylordsville, CT) and Hit2lead Company (San Diego, CA). Acridine analogues, compound 1–6, were from our in-house library (provided by Specialized Chemistry Center, University of Kansas, Lawrence, KS); compound 7–17 were synthesized as described in supplementary information. (–)-Gossypol was isolated from racemic gossypol as we previously described. ABT-263 and DMSO were purchased from Sigma. MTT-based cytotoxicity assay and western blot analysis was carried out according to our previous publications. The primary antibodies used were LC3B (#2775) (Cell signaling Technology, Danvers, MA) and β-actin (A5441) (Sigma).

For a further assay, the system named is PC-3a. Nature of the assay: MTT-based cytotoxicity assay, PC-3a. As to conditions: Homo sapiens, averages of at least two independent experiments, read-out: Cytotoxicity in different cell lines (IC50, μM) PC-3a.
Excerpt: as §1

Another assay concerns the target T2, Bcl-xL protein (Homo sapiens, UniProt Q07817).
T2 construct: made in house
Nature of the assay: Surface plasmon resonance assay, immobilized Bcl-xL. The assay is classed as binding. As to conditions: SPR; 10 μM compound; Bcl-xL immobilized 10000 RU. The protocol: The surface plasmon resonance experiments were performed using a Biacore 3000 (GE Healthcare Pittsburgh, PA) equipped with a research-grade CM5 sensor chip. The ligand (Bcl-xL) was immobilized using amine-coupling chemistry. The surfaces of flow cells on a Biacore sensor chip CM5 were activated for 7 min with a 1:1 mixture of 0.1 M NHS (N-hydroxysuccinimide) and 0.1 M EDC (3-(N,N-dimethylamino) propyl-N-ethylcarbodiimide) at a flow rate of 5 μL/min. The ligand (Bcl-xL) at a concentration of 180 μg/mL in 10 mM sodium acetate, pH 4.5, was immobilized at a density of about 10000 RU on flow cell 2; the ligand (SUMO-Bcl-2, 37.5 kDa, > 90% pure based on SDS–PAGE) at a concentration of 44 μg/ml in 10 mM sodium acetate, pH 4.5, was immobilized at a density of 10000 RU on flow cell 3; flow cell 1 was left blank to serve as a reference surface. All the surfaces were blocked with a 7 min injection of 1 M ethanolamine, pH 8.0.
For kinetic analysis, a concentration series of analyte were injected over the flow cells at a flow rate of 60 μL/min at 20 °C. The complex was allowed to associate and dissociate for 120 and 180 s, respectively. For binding studies, analyte (or test compound) was injected over the two flow cells in duplicate at indicated concentration at a flow rate of 60 μL/min at 20 °C. The running buffer consisted of 20 mM HEPES, 150 mM NaCl, 3 mM EDTA, 1 mM DTT, 0.05% P20, 5% DMSO, pH 7.4. The complex was allowed to associate and dissociate for 120 and 180 s, respectively. The buffer samples containing a range of 4–6% DMSO were injected at the beginning, used for solvent correction. The surfaces were regenerated between binding cycles with a 5 s injection of 5 mM NaOH for compounds and 10 mM Glycine pH 2.5 for 20-mer.
All measurements were taken with flow cell 1 as a reference (i.e. sensorgram depicts “2–1 correction”) and corrected for DMSO bulk differences via the calibration curves. To obtain kinetic rate constants (Ka and Kd), corrected response data were fit to a simple 1:1 interaction model using local fit (includes correction for mass transport limitations) available within Biaevaluation 3.1 software or Scrubber2 software. The equilibrium dissociation constant (KD) was determined by Kd/Ka.
(In general: SPR reads the build-up and loss of mass on a sensor chip optically.)

The next assay has as its system PC-3. Nature of the assay: MTT-based cytotoxicity assay, PC-3. The settings on record: Homo sapiens, averages of at least two independent experiments, read-out: Cytotoxicity in different cell lines (IC50, μM) PC-3.
Excerpt: as §1

The subject of assay [2] is DU145, PC-3a and PC-3 prostate cancer cell lines. Nature of the assay: MTT-based cytotoxicity assay, all three prostate cancer cell lines. Also on record: species or system Human. As to conditions: for IC50: Homo sapiens, DU-145, MTT, DU145, PC-3a and PC-3, read-out: cytotoxicity IC50, stated for all three cell lines together.
Excerpt: We also tested the cytotoxicity of the 17 compounds in human prostate cancer cell lines by MTT assay (Table 1).
as §1, with “PC-3a is a derivative of PC-3 that is resistant to chemo/radiotherapy, established in our lab and confirmed by genotyping.” left out, “Acridine analogues, compound 1–6, were from our in-house library (provided by Specialized Chemistry Center, University of Kansas, Lawrence, KS); compound 7–17 were synthesized as described in supplementary information.” left out
In general terms: Tetrazolium assays rely on reduction of a dye to a coloured formazan, in cell work by metabolically active cells.

Structures are written as SMILES.

T2 sequence (Q07817 whole entry): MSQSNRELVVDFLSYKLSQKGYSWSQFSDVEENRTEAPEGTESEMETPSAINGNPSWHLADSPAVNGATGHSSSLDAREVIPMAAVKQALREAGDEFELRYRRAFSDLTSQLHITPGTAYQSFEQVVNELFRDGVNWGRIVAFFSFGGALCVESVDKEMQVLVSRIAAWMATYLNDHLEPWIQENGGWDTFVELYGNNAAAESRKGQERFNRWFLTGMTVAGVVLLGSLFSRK
T1 sequence (Q07817 whole entry, one chain of several): as the sequence (Q07817 whole entry) above

For the compound `CC(=O)O.Cc1cc2c(C(C)C)c(O)c(O)c(C=O)c2c(O)c1-c1c(C)cc2c(C(C)C)c(O)c(O)c(C=O)c2c1O` [(–)-gossypol], in assay [1], the “competitive displacement of fluorescent 20-mer” value was “capable of freeing out fluorescent 20mer”.

As to `CC1(C)CCC(c2ccc(Cl)cc2)=C(CN2CCN(c3ccc(C(=O)NS(=O)(=O)c4ccc(N[C@H](CCN5CCOCC5)CSc5ccccc5)c(S(=O)(=O)C(F)(F)F)c4)cc3)CC2)C1` [ABT-263], the “competitive displacement of fluorescent 20-mer” value in assay [1] is given as “capable of freeing out fluorescent 20mer”.

As for `COc1ccc(CCN(C)c2c3ccccc3nc3ccccc23)cc1OC` [Compound 1], the half-maximal inhibitory concentration (IC50) (usually the concentration that gives 50% inhibition) in the assay on DU145 is 8.15 ± 0.59 µM; with PC-3a it was 5.81 ± 1.16 µM; with PC-3, 6.04 ± 0.68 µM. Besides, at Bcl-xL protein, the “binding level to Bcl-xL protein in SPR” value was “almost no binding”.

As for `CN(CCc1ccc(O)c(O)c1)c1c2ccccc2nc2ccccc12` [Compound 2], the IC50 in the assay with DU145 is 47 ± 7.39 µM; in the assay with PC-3a, 29.2 ± 11.2 µM; in the assay on PC-3, 38.7 ± 5.46 µM.

Consider `COc1ccc(CCNc2ncnc3ccccc23)cc1OC` [Compound 3], for which the results for the half-maximal inhibitory concentration (IC50) (in the assay with DU145; in the assay on PC-3a; in assay [2]) were over 100 µM, 82.7 ± 7.99 µM and over 100 µM, respectively. Besides, the “binding level to Bcl-xL protein in SPR” value on Bcl-xL protein was “almost no binding”.

As for `COc1cc(Br)c(CCNc2c3ccccc3nc3ccccc23)cc1OC` [Compound 4], the IC50 was 6.33 ± 0.32 µM in the assay on DU145, 4.37 ± 0.68 µM in the assay with PC-3a and 4.43 ± 0.46 µM in the assay on PC-3.

For `Nc1c2ccccc2nc2ccccc12` [Compound 5], the IC50 was 2.78 ± 0.79 µM in the assay on DU145, 0.74 ± 0.45 µM in the assay with PC-3a, 0.5 to 5 µM in assay [2] and 0.79 ± 0.07 µM with PC-3. In assay [2] (higher cytotoxicity in PC-3 and PC-3a than in DU145), the “fold difference in IC50 value, PC-3 and PC-3a versus DU145” value is listed as 3–5 fold.

On to `O=C(CSc1nc(=O)c2ccccc2[nH]1)c1ccc(O)c(O)c1` [Compound 6], for which the IC50 (with DU145; in the assay on PC-3a; in assay [2]; in the assay with PC-3) was over 100 µM each time. The “binding level to Bcl-xL protein in SPR” value at Bcl-xL protein is “almost no binding”.

As to `COc1ccc2nc3cc(Cl)ccc3c(NCCOCCO)c2c1` [Compound 8], the concentration for half-maximal inhibition (IC50) with DU145 was determined as 3.68 ± 0.55 µM; with PC-3a, 1.64 ± 0.78 µM; in the assay with PC-3 it was 1.42 ± 0.73 µM.

Consider `COc1ccc2nc3cc(Cl)ccc3c(Oc3ccccc3)c2c1` [Compound 10], for which the IC50 with DU145 was 77.7 ± 24.2 µM; in the assay on PC-3a, 36.1 ± 8.23 µM; with PC-3, 14.1 ± 0.71 µM.

In the case of `COc1ccc2nc3ccccc3c(-c3ccc([N+](=O)[O-])cc3)c2c1` [Compound 11], the IC50 (in the assay with DU145; in the assay with PC-3a; in assay [2]; in the assay on PC-3) was over 100 µM throughout. Further, the “binding level to Bcl-xL protein in SPR” value at Bcl-xL protein was “almost no binding”.

In the case of `COc1ccc2nc3ccccc3c(-c3ccncc3)c2c1` [Compound 12], the IC50 is 45.4 ± 8.18 µM with DU145, 16.4 ± 2.56 µM with PC-3a and 21.6 ± 2.24 µM with PC-3.

Turning to `COc1ccc2nc3cc(Cl)ccc3c(-c3ccncc3)c2c1` [Compound 13], the IC50 in the assay on DU145 was found to be 57 ± 14.5 µM; with PC-3a, 53.9 ± 3.66 µM; with PC-3, 52.4 ± 10.4 µM.

For `COc1ccc2nc3cc(Cl)ccc3c(-c3ccc(F)cc3)c2c1` [Compound 15], the IC50 (with DU145; in the assay on PC-3a; in assay [2]; in the assay on PC-3) was over 100 µM in each case. Further, at Bcl-xL protein, the “binding level to Bcl-xL protein in SPR” value is given as “almost no binding”.

For the compound `COc1ccc2nc3cc(Cl)ccc3c(-c3ccc(NC(=O)OC(C)(C)C)cc3)c2c1` [Compound 16], the 50% inhibitory concentration (IC50) amounted to 36 ± 14 µM in the assay on DU145, 38.7 ± 20.4 µM in the assay on PC-3a and 45 ± 20.2 µM in the assay with PC-3.

Turning to `COc1ccc2nc3cc(Cl)ccc3c(-c3ccc(N)cc3)c2c1` [Compound 17], the half-inhibitory concentration (IC50) in the assay on DU145 was 53 ± 14.7 µM; with PC-3a it was over 100 µM; with PC-3, 29.5 ± 28.4 µM.

For the origin of these results see PMC5584254, “Identification of novel small molecule Beclin 1 mimetics activating autophagy” (Oncotarget, 2017).
